The source of these data is patent publication US6541463B1, “Inhibitors of type 5 and type 3 17β-hydroxysteroid dehydrogenase and methods for their use” (Endorecherche, Inc., priority 1998, dated 2003).

“And” between values parts separate entries of the source, which are not always exact repeats. Equal entries are not always repeated. Where two headings read alike, the source gives them in different places.

The experiment has as its target T1, human type 5 17β-hydroxysteroid dehydrogenase (Homo sapiens, UniProt P42330).
T1 construct: screen again a human placental λgt11 cDNA to get the full length cDNA clone; expressed in transfected cells; host or cells: human embryonal kidney 293 cells (pCMV / pCMV-neo vector)
T1 sequence (P42330 1-323): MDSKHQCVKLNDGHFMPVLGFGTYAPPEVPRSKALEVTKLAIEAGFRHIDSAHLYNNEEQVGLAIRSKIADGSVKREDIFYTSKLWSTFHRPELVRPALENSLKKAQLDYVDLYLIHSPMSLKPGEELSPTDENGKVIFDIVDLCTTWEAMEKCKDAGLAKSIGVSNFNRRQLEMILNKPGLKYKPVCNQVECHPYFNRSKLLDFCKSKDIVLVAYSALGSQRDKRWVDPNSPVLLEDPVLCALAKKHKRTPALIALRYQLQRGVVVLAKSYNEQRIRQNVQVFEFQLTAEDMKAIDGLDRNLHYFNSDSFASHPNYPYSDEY
The experiment is described as follows: Inhibition of human type 5 17β-HSD activity in transfected 293 cells. The class given is cell-based. The procedure, abridged:
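Human type 5 17β-HSD cDNA in a CMV-promoter vector, transfected by calcium phosphate (1 to 10 μg plasmid per 10^6 cells) into 293 cells grown in DMEM with 10% FBS at 37 °C.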

Setting [1] is: read-out: Inhibition Type V 17B-HSD IC50.
[2] abbreviates: Table 4′, read-out: Inhibition Type V 17β-HSD IC50.
Where [3] appears, read: read-out: Inhibition Type V 17β-HSD IC50.

Turning to `CCCC(=O)O[C@]1(C)C(=O)CCC2C3C=C(C)C4=CC(=O)CC[C@]4(C)C3CC[C@@]21C` (stereo partly drawn) [EM-1078], under setting [1], the IC50 (in general, the concentration needed to halve the response being measured) amounted to 3.8 ± 0.6 nM.

Regarding `CC1(C)CC[C@@]2(CCC3C4CCc5cc(C(=O)O)ccc5C4CC[C@@]32C)OC1=O` (stereo partly drawn) [EM-1401, 3-Carboxy-1,3,5(10)-estratrien-17(R)-spiro-2′-(5′,5′-dimethyl-6′-oxo)tetrahydropyran], the IC50 under setting [2] stood at 4 ± 1.5 nM.

Consider `CC1(C)CCC2(CCC3C4CCc5c(cc(Cl)c(OS(C)(=O)=O)c5Cl)C4CCC32C)OC1=O` (stereo not drawn) [EM-1392-CS], for which the half-inhibitory concentration (IC50) under setting [2] was 19 nM.

Regarding `CC1(C)CC[C@@]2(CC[C@H]3[C@@H]4CCc5c(cc(Br)c(O)c5Br)[C@H]4CC[C@@]32C)OC1=O` [EM-1382-CS], where the note is “Table 4′”, the “Inhibition Type V 17β-HSD % Inh. at 3 · 10^−6” value came to 86% and the “Inhibition Type V 17β-HSD % Inh. at 3 · 10^−7” value was 74%.

For the compound `COC(=O)CCCC(=O)O[C@]1(C(C)=O)CC[C@H]2[C@@H]3C=C(C)C4=CC(=O)CC[C@]4(C)[C@H]3CC[C@@]21C` [EM-1007, 6-Methyl-4,6-pregnadien-17α-ol-3,20-dione 4′-Carbomethoxybutyrate], the “Inhibition Type V 17β-HSD % Inh.” value was 86) % (at 3.10^−6) and “(81%” (at 3.10^−7).

Turning to `CCS(=O)(=O)Oc1ccc2c(c1)CCC1C2CCC2(C)C1CCC21CCC(C)(C)C(=O)O1` (stereo not drawn) [EM-1364-CS], the IC50 under setting [2] came out at 17 nM.

In the case of `CN(C)CCOc1ccc2c(c1)CCC1C2CCC2(C)C1CCC21CCC(C)(C)C(=O)O1` (stereo not drawn) [EM-1389-CS], the IC50 under setting [2] turned out to be 25 nM.

Consider `CC(=O)O[C@]1(C)C(=O)CCC2C3C=C(C)C4=CC(=O)C=C[C@]4(C)C3CC[C@@]21C` (stereo partly drawn) [CS-237], for which the IC50 under setting [1] was determined as 9 ± 1 nM.

As for `CC1(C)CC[C@@]2(CCC3C4CCc5cc6oncc6cc5C4CC[C@@]32C)OC1=O` (stereo partly drawn) [EM-1407-CS, 1,3,5(10)-estratrien-(2,3-oximino)-17(R)-spiro-2′-(5′,5′-dimethyl-6′-oxo)tetrahydropyran], the IC50 under setting [2] is 12 ± 3 nM.

On to `COc1cc2c(cc1C(F)(F)F)C1CCC3(C)C(CCC34CCC(C)(C)C(=O)O4)C1CC2` [EM-1409, 3-Methoxy-2-trifluoromethyl-1,3,5(10)-estratrien-17(R)-spiro-2′-(5′,5′-dimethyl-6′-oxo)tetrahydropyran], for which the half-maximal inhibitory concentration (IC50) under setting [2] worked out at 170 ± 70 nM.

For the compound `CC1(C)CCC2(CCC3C4CCc5cc(O)c([N+](=O)[O-])cc5C4CCC32C)OC1=O` (stereo not drawn) [EM-1125-CS], the IC50 under setting [2] was found to be 2 nM.

Take `COCCOc1cc2c(cc1C(=O)O)C1CCC3(C)C(CCC34CCC(C)(C)C(=O)O4)C1CC2` [EM-1405, 2-Carboxy-3-(2″-methoxyethyloxy)-1,3,5(10)-estratrien-17(R)-spiro-2′-(5′,5′-dimethyl-6′-oxo)tetrahydropyran]: the 50% inhibitory concentration (IC50) under setting [2] is 23 nM.

As for `COc1ccc2c(c1)CCC1C2CCC2(C)C1CCC21CCC(C)(C)C(=O)O1` (stereo not drawn) [EM-1370], the IC50 under setting [2] amounted to 43 nM.

In the case of `COc1c(Br)cc2c(c1Br)CCC1C2CCC2(C)C1CCC21CCC(C)(C)C(=O)O1` (stereo not drawn) [EM-1385-CS], the IC50 under setting [2] was 51 nM.

For `CC1(C)CCC2(CCC3C4CCc5cc(O)c(C(N)=O)cc5C4CCC32C)OC1=O` (stereo not drawn) [EM-01660], the IC50 under setting [2] worked out at 5.6 ± 0.4 nM.

As to `CC12CCC3c4ccc(O)cc4CCC3C1CCC21CC=CC(=O)O1` [PB-132-140, 3-hydroxy-1,3,5(10)-estratrien-17(R)-spiro-2′-(4′,5′-dihydro-6′-oxo)pyran], the 50% inhibitory concentration (IC50) under setting [2] is 49 ± 5 nM.

As for `CC(=O)[C@@]1(OC(=O)CCCCF)CCC2C3C=C(C)C4=CC(=O)CC[C@]4(C)C3CC[C@@]21C` (stereo partly drawn) [EM-1195-CS], the IC50 under setting [3] stood at 4 ± 0.5 nM.

On to `COC(=O)C1CCC2(CCC3C4CCc5cc(O)ccc5C4CCC32C)OC1=O` [PB-132-146, 3-Hydroxy-1,3,5(10)-estratrien-17(R)-2′-(5′-methoxycarbonyl-6′-oxo)tetrahydropyran], for which the IC50 under setting [2] came to 72 ± 3 nM.

As to `COc1ccc(CC(=O)O[C@]2(C(C)=O)CCC3C4C=C(C)C5=CC(=O)C=C[C@]5(C)C4CC[C@@]32C)cc1` (stereo partly drawn) [EM-1291], the IC50 under setting [3] amounted to 7 ± 1 nM.

On to `CC1(C)CCC2(CCC3C4CCc5cc(OCCN6CCCCC6)ccc5C4CCC32C)OC1=O` [EM-1390-CS, 3-(N-piperidyl-ethyl)-1,3,5(10)-estratrien-17(R)-spiro-2′-(5′,5′-dimethyl-6′-oxo)-tetrahydropyran], for which the IC50 under setting [2] worked out at 48 nM.

Consider `COCCOc1cc2c(cc1C(F)(F)F)[C@H]1CC[C@@]3(C)[C@@H](CC[C@@]34CCC(C)(C)C(=O)O4)[C@@H]1CC2` [EM-1438, 3-(2′-Methoxyethoxy)-2-trifluoromethyl-1,3,5(10)-estratrien-17(R)-spiro-2′-(5′,5′-dimethyl-6′-oxo)tetrahydropyran], for which, for the setting “Table 4′”, the “Inhibition Type V 17β-HSD % Inh. at 3 · 10^−6” value is recorded as 95.2% and the “Inhibition Type V 17β-HSD % Inh. at 3 · 10^−7” value was 90.6%.

In the case of `COCCOc1ccc2c(c1)C(=O)CC1C2CCC2(C)C1CCC21CCC(C)(C)C(=O)O1` (stereo not drawn) [EM-1408-CS], the IC50 under setting [2] worked out at 5.5 ± 1 nM.

Regarding `CCOc1ccc2c(c1)CCC1C2CC[C@@]2(C)C1CC[C@@]21CCC(C)(C)C(=O)O1` (stereo partly drawn) [EM-1369, 3-Ethoxy-1,3,5(10)-estratrien-17(R)-spiro-2′-(5′,5′-dimethyl-6′-oxo)-tetrahydropyran], the 50% inhibitory concentration (IC50) under setting [2] was determined as 46 nM.

As to `CC1(C)CCC2(CCC3C4CCc5c(cc(Cl)c(O)c5Cl)C4CCC32C)OC1=O` (stereo not drawn) [EM-1391-CS], the IC50 under setting [2] was determined as 19 nM.

On to `COCCOc1cc2c(cc1C#N)C1CC[C@@]3(C)C(CC[C@@]34CCC(C)(C)C(=O)O4)C1CC2` (stereo partly drawn) [EM-1396], for which the IC50 (Inhibition Type V 17β-HSD IC50, Table 4′) amounted to 13 nM.

Regarding `CSCCOc1ccc2c(c1)CCC1C2CCC2(C)C1CCC21CCCC(=O)O1` [CS-242, 3-Methylthioethyloxy-1,3,5(10)-estratrien-17(R)-spiro-2′-(6′-oxo) Tetrahydropyran], under setting [2], the IC50 worked out at 6.6 ± 0.9 nM.

For the compound `CCC[C@]1(F)CC2C3C=CC4=CC(=O)CC[C@]4(C)C3CC[C@]2(C)C1=O` (stereo partly drawn) [EM-1183], under setting [1], the IC50 was determined as 4.6 ± 0.4 nM.

For `CC1CCC2(CCC3C4CCc5cc(O)c([N+](=O)[O-])cc5C4CCC32C)OC1=O` [EM-1131, 2-Nitro-1,3,5(10)-estratrien-3-ol-17(R)-spiro-2′-(5′-methyl-6′-oxo)tetrahydropyran], the IC50 under setting [2] stood at 3 nM.

Turning to `COc1ccc2c(c1)C(=O)CC1C3CCC4(CCC(C)(C)C(=O)O4)C3(C)CCC21O` (stereo not drawn) [EM-1386], under setting [2], the IC50 came to 25 nM.

On to `CC1(C)CCC2(CCC3C4CCc5ccccc5C4CCC32C)OC1=O` (stereo not drawn) [CS-224], for which the IC50 under setting [2] was 2.9 nM and 10.7 nM.
